{
  "source": "paper PMC6311893",
  "about": "“Computational prediction of plasma protein binding of cyclic peptides from small molecule experimental data using sparse modeling techniques” (BMC Bioinformatics, 2018)",
  "origin": "cited, not measured here",
  "data": [
    {"test_system": "plasma protein", "conditions": "fraction bound to plasma protein; small molecule dataset, sheet 1-SM (Set Dte = test, Dtr = training); ref Ingle et al.; cited from earlier work", "values": [
      {"molecule": "CC1(C)S[C@@H]2[C@H](/N=C/N3CCCCCC3)C(=O)N2[C@H]1C(=O)O", "note": "[amdinocillin]", "PPB (fb)": 0.14},
      {"molecule": "NC[C@H]1O[C@H](O[C@H]2[C@H](O)[C@@H](O[C@H]3O[C@H](CO)[C@@H](O)[C@H](N)[C@H]3O)[C@H](N)C[C@@H]2N)[C@H](N)C[C@@H]1O", "note": "[Tobramycin]", "PPB (fb)": 0.05},
      {"molecule": "CN(C)CCC(c1ccc(Br)cc1)c1ccccn1", "note": "(stereo not shown) [brompheniramine]", "PPB (fb)": 0.72},
      {"molecule": "O=C(NCC1CCCCN1)c1cc(OCC(F)(F)F)ccc1OCC(F)(F)F", "note": "(stereo not shown) [Flecainide]", "PPB (fb)": 0.5},
      {"molecule": "CNC(=O)c1c(I)c(NC(C)=O)c(I)c(C(=O)O)c1I", "note": "[Iothalamic acid (Iothalamate)]", "PPB (fb)": 0.02},
      {"molecule": "O=C1c2c(O)ccc(O)c2C(=O)c2c(NCCNCCO)ccc(NCCNCCO)c21", "note": "[Mitoxantrone]", "PPB (fb)": 0.8},
      {"molecule": "CC1(C)SC2C(NC(=O)CC(N)c3cccs3)C(=O)N2C1C(=O)O", "note": "(stereo not shown) [penicillin72]", "PPB (fb)": 0.32},
      {"molecule": "CC(C(=O)O)c1ccc2c(c1)[nH]c1ccc(Cl)cc12", "note": "(stereo not shown) [Carprofen]", "PPB (fb)": 0.99},
      {"molecule": "Cc1ccsc1C(=CCCN1CCC[C@@H](C(=O)O)C1)c1sccc1C", "note": "[Tiagabine]", "PPB (fb)": 0.96},
      {"molecule": "CN(C)CCOC1=Cc2ccccc2Sc2ccc(Cl)cc21", "note": "[zotepine]", "PPB (fb)": 0.97},
      {"molecule": "CCNCC(O)c1cccc(O)c1", "note": "(stereo not shown) [Etilefrine]", "PPB (fb)": 0.24},
      {"molecule": "Cc1ccccc1-n1cc(C(=O)O)c(=O)c2cc(F)c(N3CCNCC3)cc21", "note": "[4a(o-CH3)]", "PPB (fb)": 0.37},
      {"molecule": "CCC(Oc1ccccc1)C(=O)NC1C(=O)N2C1SC(C)(C)C2C(=O)O", "note": "(stereo not shown) [penicillin50]", "PPB (fb)": 0.86},
      {"molecule": "CC(C)(O)c1ccccc1CC[C@@H](SCC1(CC(=O)O)CC1)c1cccc(/C=C/c2ccc3ccc(Cl)cc3n2)c1", "note": "[Montelukast]", "PPB (fb)": 0.99},
      {"molecule": "N=C(N)c1ccc(C(=O)N[C@@H](Cc2ccc(O)cc2)C(=O)N2CCC(OCC(=O)O)CC2)cc1", "note": "[Lamifiban]", "PPB (fb)": 0.06},
      {"molecule": "CCOC(=O)c1c(CSc2ccccc2)n(C)c2cc(Br)c(O)c(CN(C)C)c12", "note": "[arbidol]", "PPB (fb)": 0.91},
      {"molecule": "O=C(O)c1cn(-c2cccc(F)c2)c2cc(N3CCNCC3)c(F)cc2c1=O", "note": "[2b(m-F)]", "PPB (fb)": 0.51},
      {"molecule": "CCCc1oc(CCC(=O)O)c(C(=O)O)c1C", "PPB (fb)": 0.99},
      {"molecule": "Nc1nc(=O)[nH]cc1F", "note": "[Flucytosine]", "PPB (fb)": 0.02},
      {"molecule": "CN1CCN(C(c2ccccc2)c2ccccc2)CC1", "note": "[cyclizine]", "PPB (fb)": 0.6}
    ]},
    {"test_system": "plasma protein", "conditions": "fraction bound to plasma protein; small molecule dataset, sheet 1-SM, Set Dtr; ref Ingle et al.; cited from earlier work", "values": [
      {"molecule": "CN(C)CCOc1ccc(/C(=C(/CCCl)c2ccccc2)c2ccccc2)cc1", "note": "[toremifene]", "PPB (fb)": 0.99},
      {"molecule": "CCC(=O)OCC(=O)[C@@]1(OC(=O)CC)[C@@H](C)C[C@H]2[C@@H]3CCC4=CC(=O)C=C[C@]4(C)[C@@]3(Cl)[C@@H](O)C[C@@]21C", "note": "[Beclomethasone dipropionate]", "PPB (fb)": 0.87},
      {"molecule": "Cc1cccc(C)c1OCC(C)N", "note": "(stereo not shown) [Mexiletine]", "PPB (fb)": 0.63},
      {"molecule": "NNc1nncc2ccccc12", "note": "[Hydralazine]", "PPB (fb)": 0.87},
      {"molecule": "C[C@H](O)C(=O)Nc1c(I)c(C(=O)NC(CO)CO)c(I)c(C(=O)NC(CO)CO)c1I", "note": "[Iopamidol]", "PPB (fb)": 0},
      {"molecule": "O=C1c2cccc3c2[C@H](CCC3)CN1[C@@H]1CN2CCC1CC2", "note": "[Palonosetron]", "PPB (fb)": 0.62},
      {"molecule": "CCCCCN(CCCOC)C(=O)[C@@H](CCC(=O)O)NC(=O)c1ccc(Cl)c(Cl)c1", "note": "[Dexloxiglumide]", "PPB (fb)": 0.98},
      {"molecule": "COc1ccc([C@]2(C#N)CC[C@@H](C(=O)O)CC2)cc1OC1CCCC1", "note": "[Cilomilast]", "PPB (fb)": 0.99},
      {"molecule": "Nc1ccc(S(=O)(=O)c2ccc(N)cc2)cc1", "note": "[Dapsone]", "PPB (fb)": 0.75},
      {"molecule": "OCCN1CCN(CCCN2c3ccccc3Sc3ccc(Cl)cc32)CC1", "note": "[Perphenazine]", "PPB (fb)": 0.92},
      {"molecule": "CS(=O)(=O)OCCCCOS(C)(=O)=O", "note": "[Busulphan]", "PPB (fb)": 0.04},
      {"molecule": "NS(=O)(=O)c1cc(C2(O)NC(=O)c3ccccc32)ccc1Cl", "note": "(stereo not shown) [Chlorthalidone]", "PPB (fb)": 0.75},
      {"molecule": "Nc1ccn(C[C@@H](CO)OCP(=O)(O)O)c(=O)n1", "note": "[Cidofovir]", "PPB (fb)": 0.02},
      {"molecule": "c1ccc(CC2=NCCN2)cc1", "note": "[tolazoline]", "PPB (fb)": 0.23},
      {"molecule": "CCc1nn(CCCN2CCN(c3cccc(Cl)c3)CC2)c(=O)n1CCOc1ccccc1", "note": "[Nefazodone]", "PPB (fb)": 0.99},
      {"molecule": "COc1c(N2CCNC(C)C2)c(F)cc2c(=O)c(C(=O)O)cn(C3CC3)c12", "note": "(stereo not shown) [Gatifloxacin]", "PPB (fb)": 0.2},
      {"molecule": "COc1c(Cl)ccc(Cl)c1C(=O)O", "note": "[Dicamba]", "PPB (fb)": 0.9},
      {"molecule": "Nc1ncnc2c1ncn2CCOCP(=O)(O)O", "note": "[Adefovir]", "PPB (fb)": 0.04}
    ]},
    {"test_system": "plasma protein", "conditions": "fraction bound to plasma protein; small molecule dataset, sheet 1-SM; ref Ingle et al.; cited from earlier work", "values": [
      {"molecule": "Clc1ccccc1CN1CCc2sccc2C1", "note": "[ticlopidine]", "PPB (fb)": 0.96},
      {"molecule": "COc1cc2c(cc1OC)CN(C(=O)[C@H](C)N[C@@H](CCc1ccccc1)C(=O)O)[C@H](C(=O)O)C2", "note": "[moexiprilat]", "PPB (fb)": 0.5},
      {"molecule": "O=C1NCCN1CCN1CCC(c2cn(-c3ccc(F)cc3)c3ccc(Cl)cc23)CC1", "note": "[sertindole]", "PPB (fb)": 0.99},
      {"molecule": "Cc1cn[nH]c1", "note": "[fomepizole]", "PPB (fb)": 0},
      {"molecule": "Nc1n[n+]([O-])c2ccccc2[n+]1[O-]", "note": "[Tirapazamine]", "PPB (fb)": 0.19},
      {"molecule": "NC(=O)N1c2ccccc2CC(=O)c2ccccc21", "note": "[oxcarbazepine]", "PPB (fb)": 0.45},
      {"molecule": "CC(Cc1ccccc1)NCCC(c1ccccc1)c1ccccc1", "note": "(stereo not shown) [prenylamine]", "PPB (fb)": 0.97},
      {"molecule": "CCc1nnc(NS(=O)(=O)c2ccc(N)cc2)s1", "note": "[sulfaethidole]", "PPB (fb)": 0.97},
      {"molecule": "CCc1cccc2c3c([nH]c12)C(CC)(CC(=O)O)OCC3", "note": "(stereo not shown) [etodolac]", "PPB (fb)": 0.99},
      {"molecule": "CN1C(C(=O)Nc2ccccn2)=C(O)c2ccccc2S1(=O)=O", "note": "[piroxicam]", "PPB (fb)": 0.99},
      {"molecule": "CN1CCN(CC(=O)N2c3ccccc3C(=O)Nc3cccnc32)CC1", "note": "[pirenzepine]", "PPB (fb)": 0.1},
      {"molecule": "CNCCC(Oc1ccc(C(F)(F)F)cc1)c1ccccc1", "note": "(stereo not shown) [fluoxetine]", "PPB (fb)": 0.95},
      {"molecule": "CC(C)C(=O)Nc1ccc([N+](=O)[O-])c(C(F)(F)F)c1", "note": "[flutamide]", "PPB (fb)": 0.9}
    ]},
    {"test_system": "plasma protein", "conditions": "plasma; cited from earlier work", "values": [
      {"molecule": "C[C@]12CCC(=O)C(O)=C1CC[C@@H]1[C@@H]2CC[C@]2(C)C(=O)CC[C@@H]12", "note": "[formestane]", "PPB (fb)": 0.84},
      {"molecule": "COc1ccc(C(CN(C)C)C2(O)CCCCC2)cc1", "note": "(stereo not shown) [Venlafaxine]", "PPB (fb)": 0.27},
      {"molecule": "Tigecycline", "PPB (fb)": 0.8},
      {"molecule": "C[N+](C)(C)CCOC(=O)CCC(=O)OCC[N+](C)(C)C", "note": "[succinylcholine]", "PPB (fb)": 0.3},
      {"molecule": "COC(=O)Nc1nc2ccccc2[nH]1", "note": "[carbendazim]", "PPB (fb)": 0.67},
      {"molecule": "Clc1ccc2c(c1)C(c1ccccc1)=NCc1nncn1-2", "note": "[estazolam]", "PPB (fb)": 0.93},
      {"molecule": "CN(C)Cc1nnc2n1-c1ccc(Cl)cc1C(c1ccccc1)=NC2", "note": "[Adinazolam]", "PPB (fb)": 0.69},
      {"molecule": "COc1ccc2c(C(=O)c3ccc(Cl)cc3)c(C)n(CC(=O)O)c2c1", "note": "[Clometacin]", "PPB (fb)": 0.99},
      {"molecule": "C=CCC1(C(C)C#CCC)C(=O)N=C(O)N(C)C1=O", "note": "(stereo not shown) [Methohexital]", "PPB (fb)": 0.75},
      {"molecule": "CO[C@H]1[C@@H](O)C[C@H](O[C@H]2[C@@H](O)C[C@H](O[C@H]3[C@@H](O)C[C@H](O[C@H]4CC[C@@]5(C)[C@H](CC[C@@H]6[C@@H]5C[C@@H](O)[C@]5(C)[C@@H](C7=CC(=O)OC7)CC[C@]65O)C4)O[C@@H]3C)O[C@@H]2C)O[C@@H]1C", "note": "[metildigoxin]", "PPB (fb)": 0.15},
      {"molecule": "OC(O)C(Cl)(Cl)Cl", "note": "[chloral-hydrate]", "PPB (fb)": 0.35},
      {"molecule": "NC(=O)C[S+]([O-])C(c1ccccc1)c1ccccc1", "note": "(stereo not shown) [modafinil]", "PPB (fb)": 0.6},
      {"molecule": "CCC1(CC)C(=O)NC(=O)NC1=O", "note": "[barbital]", "PPB (fb)": 0.1}
    ]}
  ]
}
